Measured values as given in US10945992B1, “Dosage forms of rofecoxib and related methods” (Tremeau Pharmaceuticals, Inc., priority 2019, dated 2021).
Read-outs that look alike come from different tables or passages of the source.

Experiments:
[1] = TRM-201-PK-102 safety: treatment-emergent adverse events; assay type: in vivo, human
From the text: The timing and frequency of all safety assessments was listed in the schedule of events (Table 19). Safety and tolerability included monitoring and recording of AEs, clinical laboratory assessments (hematology, serum chemistry, and urinalysis), vital sign measurements, 12-lead ECG assessments, and physical examination findings. […] If clinical significance was noted, the result and reason for significance were documented. Any abnormal laboratory test results (hematology, clinical chemistry, or urinalysis) or other safety assessments (e.g., ECGs, vital sign measurements), including those that worsen from baseline, felt to be clinically significant in the medical and scientific judgment of the investigator were to be recorded as AEs or SAEs.
The investigator was responsible for reporting all AEs that were observed or reported during the study, regardless of their relationship to study drug or their clinical significance. If there was any doubt as to whether a clinical observation was an AE, the event was reported. An AE was defined as any untoward medical occurrence in a subject enrolled into this study regardless of its causal relationship to study drug. Subjects were instructed to contact the investigator at any time after enrollment if any symptoms developed. A treatment-emergent AE (TEAE) was defined as any event not present before exposure to study drug or any event already present that worsens in either intensity or frequency after exposure to study drug.
All safety data were summarized. The incidence of adverse events was presented by the MedDRA system organ class and preferred term, relationship to the test article, and severity. Descriptive statistics of clinical laboratory results and vital signs were presented, as well as summaries of changes from baseline (from the Check-in visit(s)) and of clinically notable values. All AE data were presented in a data listing TEAEs were summarized overall, as well as by severity and relationship to study drug. Serious AEs and AEs leading to discontinuation of study drug were also presented in the data listings and summarized. Actual values and changes from Baseline for clinical laboratory test results, vital sign measurements, and 12-lead ECG results were summarized at each time point using descriptive statistics (number of subjects, mean, SD, median, minimum, and maximum).

[2] = TRM-201-PK-101 single-dose pharmacokinetic study, 25 mg, fasted healthy subjects; assay type: in vivo, human; conditions: for Cmax / AUC(0-inf) / AUC: human, plasma, oral
Protocol: A Single-Dose, Open-Label, Phase 1, Adaptive Pharmacokinetic Study of TRM-201 (Rofecoxib) 25 mg Administered to Healthy Subjects in a Fasting State, with Comparison to Historical Pharmacokinetic Parameters of Previously Marketed Rofecoxib and a Food-Effect Substudy (“TRM-201-PK-101” or “101 PK Study”)
This is a single-center, open-label, adaptive PK study of TRM-201 consisting of a MAIN study with a PILOT portion conducted under a fasted condition, and a two-period crossover, FOOD-EFFECT sub study under both fasted and fed conditions. The PILOT portion of the study (21 subjects) will include a single dose of TRM-201 in a single group to assess the PK of TRM-201 in healthy volunteers under fasted conditions. Following completion of the PILOT portion and the decision to move forward, an additional 16 subjects will be enrolled in the MAIN study and an additional 16 subjects will be enrolled in the FOOD-EFFECT sub study. The MAIN study will include a single dose of TRM-201 to assess the PK of TRM-201 in healthy volunteers under fasted conditions. The FOOD-EFFECT sub study is a single-dose, two-period crossover study. A single dose of TRM-201 will be given on Day 1 of each dosing period to assess the PK of TRM-201 in healthy volunteers under both fasted and fed conditions. Subjects will be randomized 1:1 into the two sequences fasted followed by fed, and fed followed by fasted.
After Check-In, subjects will fast overnight for at least 10 hours before study drug administration. While fasting, subjects will have nothing to eat and only water to drink. Water will be permitted as desired, except for the period between 1 hour before and 1 hour after study drug dosing (excepting as permitted for dosing). After the 2-hour PK blood sample, subjects will be allowed one 250-mL cup of clear apple juice. After the 4-hour PK blood sample, subjects will be served a light lunch. Following the light lunch, subjects should receive standardized meals according to the clinic's standard procedures that are scheduled at consistent times and at least 15 minutes before or 15 minutes after PK sampling time points. Blood will be withdrawn for PK analysis at predefined time points as defined in Table 8. The last time point will be 120 hours after dosing with study drug. After the 120-hour PK sample, the EOS procedures will be completed, and subjects will be discharged from the clinic.
This is an open-label PK study. Each subject is scheduled to receive a single 25-mg dose of TRM-201 in the PILOT portion and the MAIN study, and a single 25-mg dose of TRM-201 twice in the FOOD-EFFECT sub study. TRM-201 manufactured and formulated as Batch 5 (B18090) and Batch 6 (B18091), above, will be used in the study.
The time points and windows for PK blood sampling for the PILOT portion, Main study and FOOD-EFFECT substudy are presented in Table 14 below. For each sample, approximately 3 mL of blood will be drawn. The samples may be obtained by a straight stick or via an in-dwelling intravenous (IV) catheter in a forearm vein. Additional details for the collection, processing, storage, and shipping of PK samples will be provided in the study manual.
Pharmacokinetic samples will be analyzed using a validated assay for rofecoxib in human plasma. Assay results and validation details will be provided in a separate bioanalytical report.
The following PK parameters for rofecoxib will be calculated as primary endpoints using standard noncompartmental methods for both the PILOT portion and MAIN study, and the FOOD-EFFECT sub study: AUC0-∞ and Cmax. Secondary endpoints include Tmax, and t1/2. Additional PK parameters (e.g., CL/F, and Vd/F) will also be calculated using standard noncompartmental methods.
The PK parameters of rofecoxib will be analyzed based on the actual sampling times. All parameters will be calculated using the Phoenix® WinNonlin® version 6.4 or higher (Certara USA Inc., Princeton, N.J.) or SAS® version 9.3 or higher (SAS Institute Inc., Cary, N.C.). […]

[3] = 25 mg, versus Schwartz data, FIG. 28

Compound: CS(=O)(=O)c1ccc(C2=C(c3ccccc3)C(=O)OC2)cc1 [TRM-201, 4-[4-(methylsulfonyl)phenyl]-3-phenyl-2(5H)-furanone]
- TEAE in preferred term ([1]; 12.5 mg): constipation
- subjects who exhibited a TEAE ([1]; 12.5 mg): One
- TEAE in preferred term ([1]; 25 mg): ear discomfort and headache
- subjects who exhibited a TEAE ([1]; 25 mg): two
- severity of all reported TEAE ([1]; 102 PK study): mild
- related TEAE, serious TEAE, TEAE leading to study discontinuation, or severe TEAE ([1]; 102 PK study, all doses): No subjects
- subjects who exhibited a TEAE, total ([1]; 102 PK study, all doses): three
- incidence of TEAE leading to study discontinuation ([1]; at any dosage): no incidence
- incidence of related TEAE ([1]; at any dosage): no incidence
- incidence of serious TEAE ([1]; at any dosage): no incidence
- AUC0-∞ compared to historical data [2, 3]: larger
- Cmax compared to historical data [2, 3]: higher
- Cmax ([2]; 17.5 mg, 17.5 mg formulation, estimated from 101 data, read-out: estimated Cmax): ~238 ng/mL
- AUC(0-inf) ([2]; 17.5 mg, extrapolated from 25 mg assuming dose linearity, read-out: extrapolated AUC0-∞): 3250 ng·h/mL
- Cmax ([2]; 17.5 mg, extrapolated from 25 mg assuming dose linearity, read-out: extrapolated Cmax): 223 ng/mL
- Cmax ([2]; 20 mg, 20 mg formulation, estimated from 101 data, read-out: estimated Cmax): ~266 ng/mL
- AUC(0-inf) ([2]; 20 mg, extrapolated from 25 mg assuming dose linearity, read-out: extrapolated AUC0-∞): 3710 ng·h/mL
- Cmax ([2]; 20 mg, extrapolated from 25 mg assuming dose linearity, read-out: extrapolated Cmax): 254 ng/mL
- Cmax ([2]; 25 mg, 25 mg formulation in TRM-201-PK-101, as stated in Example 6, read-out: Geometric mean Cmax): 320 ng/mL
- AUC(0-inf) ([2]; 25 mg, fasted, FIG. 25, read-out: geometric mean AUC0-∞): 4640 ng·h/mL
- Cmax ([2]; 25 mg, fasted, FIG. 25, read-out: geometric mean Cmax): 318 ng/mL
- AUC ([2]; 17.5 mg formulation, estimated from 101 data, read-out: estimated AUC): ~3280 ng·h/mL
- AUC ([2]; 20 mg formulation, estimated from 101 data, read-out: estimated AUC): ~3740 ng·h/mL
- AUC ([2]; 25 mg formulation in TRM-201-PK-101, as stated in Example 6, read-out: Geometric mean AUC): 4680 ng·h/mL
